Results: patent publication US20220162610A1, “NOVEL RNA TRANSCRIPT” (PTC Therapeutics, Inc., priority 2020, published 2022)

What was measured:
[1] = test system: HTT mRNA; assay: RT-qPCR quantification of HTT mRNA in HD patient fibroblasts, 24 h; type: cell-based, human; settings: fibroblasts derived from HD patients
Method: Test compounds were serially diluted 3-fold in 100% DMSO to generate a 7-point concentration curve. A solution of test compound (500 nl, 200× in DMSO) was added to each test well with Acoustic Transfer System. Fibroblasts were seeded in 96-well flat-bottomed plates (Thermo Fisher Scientific) at 1×10^4 cells/well in 100 μl of culture medium containing the test compound or DMSO vehicle control and incubated for 24 hours (37° C., 5% CO2, 100% relative humidity). After removal of the supernatant, cells were lysed in RNA lysis buffer (1M Tris-HCL pH 7.4, 5M NaCl, 10% IGEPAL®CA-630; 50 μL/well) for 1 minute at RT, before 50 μL of chilled nuclease free water was added to each well; plates were then transferred immediately onto ice before storing at −80° C. overnight.
Cell lysates were assayed by quantitative reverse transcriptase polymerase chain reaction (RT-qPCR) to measure mRNA levels of HTT and glyceraldehyde 3-phosphate dehydrogenase (GAPDH) in the presence or absence of the test compound.
A reverse transcriptase quantitative polymerase chain reaction (RT-qPCR) reaction mixture of primers and probe sets for HTT and GAPDH was prepared according to TABLE III. […]

[2] = test system: HTT pre-mRNA; assay: Ampliseq/RNAseq analysis of intron 49 pseudoexon inclusion and HTT expression in different cell types; type: cell-based, human; settings: for inclusion of intron 49 pseudoexon: HD fibroblasts, SH-SY5Y, TK6, MRC-5 cells
[3] = biological target: T1, MDR1 (Homo sapiens, UniProt P08183); assay: MDCK-MDR1 efflux assay; type: in vitro ADME; settings: 10 μM, MDCK-MDR1 and MDCK-WT monolayers, 1 hour
T1 construct: host or cells: MDCK (Madin-Darby Canine Kidney) cells expressing MDR1
Method: The MDR1 efflux assay was conducted at Absorption System LLC (Exton, Pa.). Briefly, MDCK-MDR1 and MDCK-WT cell monolayers were grown to confluence on collagen-coated, microporous membranes in 12-well assay plates (Thermofisher). Compound solutions (10 μM) in permeability assay buffer (Hanks' balanced salt solution (HBSS), 10 mM HEPES, 15 mM glucose; pH of 7.4) were placed in the donor chamber. The receiver chamber was filled with assay buffer plus 1% BSA. Cell monolayers were dosed on the apical side (A-to-B) or basolateral side (B-to-A) and incubated at 37° C. (5% CO2, 100% relative humidity). Sampling from the donor chambers was performed at 0 and 1 hour; and from the receiver chambers at 1 hour. Each determination was performed in duplicate. The flux of lucifer yellow was also measured post-experimentally for each monolayer to ensure no damage was inflicted to the cell monolayers during the flux period. All samples were assayed by LC-MS/MS using electrospray ionisation. The apparent permeability (Papp) and percent recovery was determined using the following equation: […]
dCr/dt represents the slope of the cumulative receiver concentration versus time in μM/s; Vr is the volume of the receiver compartment (cm3); Vd is the volume of the donor compartment in (cm3); A is the area of the insert (1.13 cm2 for 12-well); C0 is the average measured concentration of the donor chamber at time zero in μM; Net Efflux ratio (ER) is defined as […].

[4] = Unbound brain partition coefficient (Kp,uu) from mouse PK studies; type: in vivo; settings: FVB (WT littermates of the BACHD colony), brain and plasma (unbound), oral, 10 mg/kg, average over animals of multiple mouse PK studies
Method: Oral pharmacokinetics (PK) of compounds was evaluated in WT littermates from the BACHD colony (FVB background). Mice were treated with test compounds (10 mg/kg) by oral gavage in 0.5% hydroxypropylmethyl cellulose (HPMC) with 0.1% Tween 80. Blood was collected by terminal cardiac puncture at specified time points (3 mice per time point) and centrifuged to generate plasma. Brain tissue was collected at the time of blood collection and homogenized in water. Protein was precipitated from plasma and brain homogenates with acetonitrile, methanol mixture (5:1, v:v) containing an internal standard that is a close analog of the test compounds. The mixture was filtered through an EMD Millipore MultiScreen™ Solvinert Filter Plate (MSRLN04, Millipore, Burlington, Mass.). Calibration standards were prepared in the same matrix and processed with the testing samples. Filtrates were analysed using Acquity ultra performance liquid chromatography (UPLC) system (Waters Corporation) tandem with Xevo TQ-s Spectrometer (Waters Corporation). Samples were injected on to a Waters UPLC Acquity BEH C18 Column (2.1*50 mm, 1.7 μm) maintained at 50° C. The injection volume was 3 μL and the mobile phase flow rate was 0.45 mL/min. The mobile phase consisted of 2 solvents: A) 0.1% formic acid in water and B) 0.1% formic acid in acetonitrile. The initial mobile phase started with 5% solvent B for 0.4 min, which was changed to […] over 0.8 min with linear gradients and then maintained at 95% solvent B for another 0.4 min. The drug concentrations were acquired and processed with MassLynx 4.1 software. PK parameters were estimated using the non-compartment method within Phoenix® WinNonlin® Build 8.1 (Certara USA, Inc., Princeton, N.J.).
The unbound brain partition coefficient (Kp,uu) is defined as the ratio between unbound brain free drug concentration and unbound plasma concentration. It was calculated using the following equation:
Kp,uu=Cbrain×fu,b/(Cplasma*fu,p)
Cbrain and Cplasma represent the compound concentrations in brain and plasma, respectively. fu,b and fu,p are the unbound fraction of each testing article in brain and plasma, respectively. Both fu,b and fu,p were determined in vitro using Pierce Rapid Equilibrium Dialysis (RED) device at Absorption System LLC (Exton, Pa.). Kp,uu was calculated individually for each animal from multiple mouse PK studies and the average values are reported here.

T1 sequence (P08183 whole entry): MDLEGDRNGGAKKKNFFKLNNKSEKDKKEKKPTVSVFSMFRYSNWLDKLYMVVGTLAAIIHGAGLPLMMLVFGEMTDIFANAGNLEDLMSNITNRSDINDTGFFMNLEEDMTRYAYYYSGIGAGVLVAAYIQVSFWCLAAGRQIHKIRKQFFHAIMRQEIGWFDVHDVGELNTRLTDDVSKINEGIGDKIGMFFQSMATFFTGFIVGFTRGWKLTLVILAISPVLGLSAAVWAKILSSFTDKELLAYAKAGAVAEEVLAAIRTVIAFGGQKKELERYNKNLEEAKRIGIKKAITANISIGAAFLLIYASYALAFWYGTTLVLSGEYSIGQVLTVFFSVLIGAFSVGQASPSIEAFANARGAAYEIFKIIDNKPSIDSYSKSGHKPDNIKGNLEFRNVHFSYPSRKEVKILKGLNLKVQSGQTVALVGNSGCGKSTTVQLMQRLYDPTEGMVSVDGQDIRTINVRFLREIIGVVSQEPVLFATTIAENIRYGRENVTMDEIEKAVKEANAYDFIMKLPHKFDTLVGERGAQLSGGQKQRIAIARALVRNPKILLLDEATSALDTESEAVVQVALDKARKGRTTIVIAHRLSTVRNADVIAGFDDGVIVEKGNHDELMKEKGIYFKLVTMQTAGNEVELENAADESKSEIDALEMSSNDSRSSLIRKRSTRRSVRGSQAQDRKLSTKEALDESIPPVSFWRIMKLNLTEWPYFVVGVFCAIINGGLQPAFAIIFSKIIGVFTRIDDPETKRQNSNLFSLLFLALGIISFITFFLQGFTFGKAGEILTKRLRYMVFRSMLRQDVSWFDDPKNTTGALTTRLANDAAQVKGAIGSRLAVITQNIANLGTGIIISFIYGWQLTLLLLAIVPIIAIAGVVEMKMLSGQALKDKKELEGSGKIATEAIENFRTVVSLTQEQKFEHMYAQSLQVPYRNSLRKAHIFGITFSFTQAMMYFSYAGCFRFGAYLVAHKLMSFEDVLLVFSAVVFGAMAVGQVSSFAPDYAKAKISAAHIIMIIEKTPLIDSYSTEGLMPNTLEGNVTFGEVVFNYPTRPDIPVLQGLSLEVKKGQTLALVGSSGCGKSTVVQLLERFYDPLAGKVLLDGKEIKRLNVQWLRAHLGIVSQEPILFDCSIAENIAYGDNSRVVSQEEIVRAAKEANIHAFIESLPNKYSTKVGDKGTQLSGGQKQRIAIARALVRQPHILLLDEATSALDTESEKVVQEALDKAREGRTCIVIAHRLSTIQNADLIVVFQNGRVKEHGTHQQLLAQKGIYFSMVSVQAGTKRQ

Row | NET MDR1 ER [3] | Kp uu [4] | Structure (SMILES) | amount of HTT mRNA [1] | inclusion of intron 49 pseudoexon [2] | HTT gene expression quantified using RNAseq (FPKM) ([2]; 100 nM, SHSY5Y cells (HTT-C2), TK6 cells (HTT-C3))
1 | >62.7 | 0.084 | CC1(C)CC(Oc2ccc(-c3ccc(-c4ccnc(O)c4)cc3O)nn2)CC(C)(C)N1 [HTT-C1] | dose-dependent decrease | induced the inclusion of an Intron 49 pseudoexon | –
2 | – | 0.179 | CC1(C)CC(Oc2ccc(-c3ccc(-c4cn[nH]c4)cc3O)nn2)CC(C)(C)N1 [HTT-C2] | – | induced the inclusion of an Intron 49 pseudoexon | reduced HTT gene expression
3 | 11.8 | 0.242 | CCN1CCC(c2cc(C)c3nc(-c4ccc5nn(C)cc5c4)cc(=O)n3c2)CC1 [HTT-D1] | dose-dependent decrease | – | –
4 | 7.10 | 0.472 | CCN1CCC(c2cc3c(F)cc(-c4cc(C)c5nc(C)cn5n4)cc3nn2)CC1 [HTT-D3] | – | induced the inclusion of an Intron 49 pseudoexon | –
